Reference: the supplement of paper PMC11451515

Tested on: NOMO1
Assay: cell viability relative to DMSO control; higher = less cytotoxic
Settings: 48 h
How it was run: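 Library compounds in DMSO were pin-dosed into 1536-well plates (5 μl) holding NOMO1 or SEM (500 cells/well) or P12-Ichikawa (1000 cells/well) leukemia cells, across an 11-point threefold series of 47 μM to 0.79 nM. Each cell line had been adapted for at least four passages in each medium. CellTiter-Glo One luminescence was read after 48 h at 37°C. Viability is the per-plate percentage relative to DMSO wells, with cell-free wells as background.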

[1] = RPMI 5 mM glucose + 10% FBS, 0.000781 µM
[2] = RPMI 5 mM glucose + 10% FBS, 0.00234 µM
[3] = RPMI 5 mM glucose + 10% FBS, 0.00702 µM
[4] = RPMI 5 mM glucose + 10% FBS, 0.0211 µM
[5] = RPMI 5 mM glucose + 10% FBS, 0.0632 µM
[6] = RPMI 5 mM glucose + 10% FBS, 0.19 µM
[7] = RPMI 5 mM glucose + 10% FBS, 0.569 µM
[8] = RPMI 5 mM glucose + 10% FBS, 1.71 µM
[9] = RPMI 5 mM glucose + 10% FBS, 5.12 µM
[10] = RPMI 5 mM glucose + 10% FBS, 15.4 µM
[11] = RPMI 5 mM glucose + 10% FBS, 46.1 µM
[12] = HPLM + 10% dialyzed FBS, 0.000781 µM
[13] = HPLM + 10% dialyzed FBS, 0.00234 µM
[14] = HPLM + 10% dialyzed FBS, 0.00702 µM
[15] = HPLM + 10% dialyzed FBS, 0.0211 µM
[16] = HPLM + 10% dialyzed FBS, 0.0632 µM
[17] = HPLM + 10% dialyzed FBS, 0.19 µM
[18] = HPLM + 10% dialyzed FBS, 0.569 µM
[19] = HPLM + 10% dialyzed FBS, 1.71 µM
[20] = HPLM + 10% dialyzed FBS, 5.12 µM
[21] = HPLM + 10% dialyzed FBS, 15.4 µM
[22] = HPLM + 10% dialyzed FBS, 46.1 µM
[23] = RPMI 5 mM glucose + 10% dialyzed FBS, 0.000781 µM
[24] = RPMI 5 mM glucose + 10% dialyzed FBS, 0.00234 µM
[25] = RPMI 5 mM glucose + 10% dialyzed FBS, 0.00702 µM
[26] = RPMI 5 mM glucose + 10% dialyzed FBS, 0.0211 µM
[27] = RPMI 5 mM glucose + 10% dialyzed FBS, 0.0632 µM
[28] = RPMI 5 mM glucose + 10% dialyzed FBS, 0.19 µM
[29] = RPMI 5 mM glucose + 10% dialyzed FBS, 0.569 µM
[30] = RPMI 5 mM glucose + 10% dialyzed FBS, 1.71 µM
[31] = RPMI 5 mM glucose + 10% dialyzed FBS, 5.12 µM
[32] = RPMI 5 mM glucose + 10% dialyzed FBS, 15.4 µM
[33] = RPMI 5 mM glucose + 10% dialyzed FBS, 46.1 µM

| Structure (SMILES) | cell viability [1] | cell viability [2] | cell viability [3] | cell viability [4] | cell viability [5] | cell viability [6] | cell viability [7] | cell viability [8] | cell viability [9] | cell viability [10] | cell viability [11] | cell viability [12] | cell viability [13] | cell viability [14] | cell viability [15] | cell viability [16] | cell viability [17] | cell viability [18] | cell viability [19] | cell viability [20] | cell viability [21] | cell viability [22] | cell viability [23] | cell viability [24] | cell viability [25] | cell viability [26] | cell viability [27] | cell viability [28] | cell viability [29] | cell viability [30] | cell viability [31] | cell viability [32] | cell viability [33] |
| --- | --- | --- | --- | --- | --- | --- | --- | --- | --- | --- | --- | --- | --- | --- | --- | --- | --- | --- | --- | --- | --- | --- | --- | --- | --- | --- | --- | --- | --- | --- | --- | --- | --- |
| NC(=O)c1cnc(-c2ccc(C3(N)CCC3)cc2)c(-c2ccccc2)c1 | 119% | 117% | 126% | 117% | 136% | 122% | 128% | 132% | 127% | 131% | 76.9% |  |  |  |  |  |  |  |  |  |  |  |  |  |  |  |  |  |  |  |  |  |  |
| FC(F)(F)C1=CC=C2C(SCCCCCO\C3=C\O\C(CN4CCOCC4)=C/C3=O)=CC=NC2=C1 | 116% | 124% | 107% | 103% | 118% | 135% | 118% | 121% | 122% | 112% | 109% | 96% | 122% | 144% | 119% | 122% | 139% | 137% | 128% | 131% | 124% | 107% | 99.3% | 118% | 105% | 114% | 131% | 112% | 125% | 129% | 114% | 109% | 92.4% |
| CN(C)CC[C@H](CSc1ccccc1)Nc1ccc([S+](=O)([O-])NC(=O)c2ccc(N3CCN(Cc4ccccc4-c4ccc(Cl)cc4)CC3)cc2)cc1[N+](=O)[O-] | 108% | 118% | 109% | 107% | 99.5% | 98.8% | 89.5% | 80.7% | 50.8% | 49.6% | 60.6% | 140% | 119% | 125% | 108% | 127% | 92.5% | 96.7% | 102% | 52.7% | 50.2% | 55% | 115% | 123% | 102% | 114% | 98.3% | 85.3% | 62.7% | 46.1% | 33.9% | 30.6% | 42.5% |
| COCCCOc1ccnc(C[S+]([O-])c2nc3ccccc3[nH]2)c1C (stereo unspecified) | 126% | 118% | 110% | 109% | 131% | 124% | 105% | 126% | 115% | 118% | 124% | 92.5% | 116% | 113% | 123% | 123% | 122% | 116% | 127% | 130% | 119% | 117% | 108% | 114% | 119% | 120% | 133% | 119% | 119% | 121% | 120% | 115% | 129% |
| CC(C[N+](C)(C)C)OC(N)=O (stereo unspecified) | 115% | 109% | 119% | 106% | 118% | 108% | 108% | 105% | 100% | 101% | 97.5% | 128% | 124% | 121% | 119% | 131% | 128% | 116% | 117% | 119% | 139% | 103% |  |  |  |  |  |  |  |  |  |  |  |
| CC(=O)OCC(=O)[C@@]12OC(C)(C)O[C@@H]1C[C@H]3[C@@H]4C[C@H](F)C/5=C/C(=O)/C=C\[C@]5(C)[C@@]4(F)[C@@H](O)C[C@]23C | 103% | 107% | 103% | 119% | 114% | 109% | 111% | 113% | 116% | 123% | 128% | 120% | 117% | 115% | 126% | 114% | 115% | 105% | 115% | 112% | 120% | 122% | 109% | 108% | 104% | 113% | 111% | 132% | 116% | 132% | 131% | 121% | 144% |
| O=[S+]([O-])(O)c1ccc2cc(/N=N/c3cc([S+](=O)([O-])O)c4cccnc4c3O)ccc2c1 | 116% | 106% | 111% | 109% | 119% | 119% | 109% | 110% | 101% | 110% | 44.2% | 114% | 122% | 133% | 136% | 129% | 139% | 122% | 126% | 127% | 110% | 44% | 121% | 124% | 117% | 115% | 119% | 113% | 121% | 119% | 110% | 106% | 62.1% |
| CCCC1=N[N](C)C2=C1\N=C(/NC2=O)C3=CC(=CC=C3OCC)[S+]([O-])(=O)N4CCN(C)CC4 | 79.5% | 92.9% | 77.4% | 81.6% | 76% | 90.2% | 72% | 83.7% | 77.3% | 79.3% | 76.9% | 85.1% | 83.9% | 81.6% | 83.7% | 86.1% | 87.9% | 98.8% | 82.4% | 81.1% | 83.6% | 52.8% | 94.4% | 88% | 91.9% | 84.5% | 72.3% | 96% | 82.3% | 77.1% | 77.4% | 85.2% | 80.8% |
